# Experiments:
# [1] = tested on: fasted Sprague-Dawley rats; assay: Acute feeding study; type: in vivo; conditions: Table 3 feeding data
# Procedure: Male, Sprague-Dawley rats (90-120 g) served as subjects for these studies. Rats were fasted for a period of 16 hrs (water was always available). After the fasting period, test compounds were administered either intraperitoneally (ip) or orally (po). Immediately following compound administration, the rats were returned to their home cage. Following 30 min after compound administration, the rats were removed from their home cages and placed individually into clean cages with a pre-measured amount of food. Food weights were obtained (to the nearest 0.1 g) at various time points. Food consumption was monitored for a period of up to 2 hrs (i.e., 2.5 hr after test compound administration).
# [2] = in vitro; conditions: human, microsomes, pH 7.4
# [3] = in vitro; conditions: rat, microsomes, pH 7.4
# [4] = target: T1, hERG (Homo sapiens, UniProt Q12809); assay: in vitro; conditions: pH 7.4
# [5] = in vitro; conditions: mouse, microsomes, pH 7.4
# [6] = target: CB1 (mutant) (Homo sapiens, UniProt P21554); assay: R-SAT functional receptor assay, CB1 (mutant, truncated after amino acid 417); type: cell-based; conditions: Table 1, CB1 (mutant); for IC50: inhibition of constitutive receptor response, read-out: pIC50 (converted); for % Inhibition: relative to the ligand SR141716 (100%)
# [7] = target: CB1 (wild-type) (Homo sapiens, UniProt P21554); assay: R-SAT functional receptor assay, CB1 (wild-type); type: cell-based; conditions: for IC50: Table 1, inhibition of constitutive receptor response; for Emax: Table 1, relative to the ligand SR141716 (100%), read-out: % Inhibition
# [8] = target: T1, hERG; assay: HERG safety study (whole cell recordings, CHO cells); conditions: CHO cells stably expressing hERG channels, pH 7.4
# [9] = target: native CB1 receptors (Rattus norvegicus, UniProt P20272); assay: CB1 receptor rat binding assay ([3H]SR141716A, rat brain membranes); conditions: rat brain membranes; 3 nM [3H]SR141716A; read-out: Rat Brain pKi (converted)
# native CB1 receptors, sequence (P20272 whole entry): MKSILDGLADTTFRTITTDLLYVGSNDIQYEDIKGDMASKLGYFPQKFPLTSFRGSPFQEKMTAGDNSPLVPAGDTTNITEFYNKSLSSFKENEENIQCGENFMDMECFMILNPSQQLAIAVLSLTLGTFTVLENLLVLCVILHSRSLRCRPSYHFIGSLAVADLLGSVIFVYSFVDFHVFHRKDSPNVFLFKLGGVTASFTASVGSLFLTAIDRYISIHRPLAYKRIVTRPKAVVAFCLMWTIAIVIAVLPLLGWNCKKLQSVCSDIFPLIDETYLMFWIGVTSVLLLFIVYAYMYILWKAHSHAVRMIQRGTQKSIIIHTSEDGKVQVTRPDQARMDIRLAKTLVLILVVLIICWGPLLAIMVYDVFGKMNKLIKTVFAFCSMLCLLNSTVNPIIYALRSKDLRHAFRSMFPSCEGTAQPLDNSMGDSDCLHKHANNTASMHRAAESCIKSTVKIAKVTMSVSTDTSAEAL
# CB1 (wild-type), sequence (P21554 whole entry): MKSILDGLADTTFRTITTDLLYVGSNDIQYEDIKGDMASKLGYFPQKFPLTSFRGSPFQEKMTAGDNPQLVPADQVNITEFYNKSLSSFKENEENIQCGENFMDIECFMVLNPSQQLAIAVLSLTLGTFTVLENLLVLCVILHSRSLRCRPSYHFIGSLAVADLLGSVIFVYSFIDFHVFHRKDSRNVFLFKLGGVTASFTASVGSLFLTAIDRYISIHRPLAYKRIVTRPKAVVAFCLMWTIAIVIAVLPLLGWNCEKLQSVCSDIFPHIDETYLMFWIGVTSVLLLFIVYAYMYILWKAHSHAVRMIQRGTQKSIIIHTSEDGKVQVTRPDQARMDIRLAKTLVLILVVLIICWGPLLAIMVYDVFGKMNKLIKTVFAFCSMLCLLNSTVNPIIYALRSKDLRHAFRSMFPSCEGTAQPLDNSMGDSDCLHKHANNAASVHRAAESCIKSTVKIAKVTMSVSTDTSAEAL
# T1 sequence (Q12809 whole entry): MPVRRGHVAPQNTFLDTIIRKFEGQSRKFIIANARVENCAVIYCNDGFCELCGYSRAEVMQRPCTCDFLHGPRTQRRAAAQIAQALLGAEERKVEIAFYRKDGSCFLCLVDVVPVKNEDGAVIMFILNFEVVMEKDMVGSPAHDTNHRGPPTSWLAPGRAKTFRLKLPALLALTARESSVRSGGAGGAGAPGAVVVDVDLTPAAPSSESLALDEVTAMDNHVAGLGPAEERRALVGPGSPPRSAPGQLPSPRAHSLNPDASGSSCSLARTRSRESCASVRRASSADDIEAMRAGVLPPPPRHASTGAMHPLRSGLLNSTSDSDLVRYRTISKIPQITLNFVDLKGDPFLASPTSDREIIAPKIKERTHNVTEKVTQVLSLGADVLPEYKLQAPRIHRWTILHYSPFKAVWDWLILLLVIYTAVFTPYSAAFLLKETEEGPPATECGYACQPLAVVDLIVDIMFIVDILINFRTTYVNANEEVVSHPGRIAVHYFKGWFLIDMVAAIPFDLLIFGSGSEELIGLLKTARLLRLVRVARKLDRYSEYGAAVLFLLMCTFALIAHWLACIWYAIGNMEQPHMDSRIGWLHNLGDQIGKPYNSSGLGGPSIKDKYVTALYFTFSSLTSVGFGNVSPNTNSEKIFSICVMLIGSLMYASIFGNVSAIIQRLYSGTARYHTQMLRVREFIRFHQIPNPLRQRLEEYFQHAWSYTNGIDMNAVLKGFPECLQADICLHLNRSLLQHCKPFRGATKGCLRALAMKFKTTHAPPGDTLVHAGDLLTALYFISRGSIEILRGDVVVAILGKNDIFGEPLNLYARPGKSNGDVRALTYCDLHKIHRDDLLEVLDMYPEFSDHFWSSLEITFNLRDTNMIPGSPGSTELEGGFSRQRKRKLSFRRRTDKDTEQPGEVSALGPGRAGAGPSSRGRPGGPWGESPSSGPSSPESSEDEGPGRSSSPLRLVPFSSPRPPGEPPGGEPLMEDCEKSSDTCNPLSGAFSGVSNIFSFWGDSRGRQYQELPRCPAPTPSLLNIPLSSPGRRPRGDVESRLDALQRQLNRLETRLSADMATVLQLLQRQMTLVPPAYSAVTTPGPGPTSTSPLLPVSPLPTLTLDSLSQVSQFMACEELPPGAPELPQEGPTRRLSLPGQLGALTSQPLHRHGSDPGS
# CB1 (mutant), sequence (P21554 1-417, change not shown): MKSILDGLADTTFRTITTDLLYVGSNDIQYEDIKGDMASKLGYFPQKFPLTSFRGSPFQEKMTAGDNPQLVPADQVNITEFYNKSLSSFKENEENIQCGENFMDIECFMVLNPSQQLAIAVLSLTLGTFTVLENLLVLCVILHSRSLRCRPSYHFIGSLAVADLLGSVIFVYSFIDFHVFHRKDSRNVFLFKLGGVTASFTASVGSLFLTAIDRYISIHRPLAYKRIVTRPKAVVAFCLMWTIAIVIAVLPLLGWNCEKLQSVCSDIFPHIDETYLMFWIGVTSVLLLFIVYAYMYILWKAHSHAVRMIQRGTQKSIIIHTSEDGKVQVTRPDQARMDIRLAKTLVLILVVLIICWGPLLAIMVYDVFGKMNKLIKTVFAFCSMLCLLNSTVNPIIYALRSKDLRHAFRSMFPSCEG
structure (smiles),measurement,setting,value
CC(C)CCNC(=O)c1ccc2c(c1)N=C(c1cccc(Cl)c1)c1ccccc1S2 [drawing 538],Feeding ID50,[1],5.3 mg/kg
CC(C)CNC(=O)c1ccc2c(c1)N=C(c1ccc(Cl)c(Cl)c1)c1ccccc1S2 [drawing 540],Feeding ID50,[1],8.4 mg/kg
CC(C)CNC(=O)c1ccc2c(c1)N=C(c1ccc(Br)cc1)c1ccccc1S2 [drawing 1791],microsomal CLint at 1 μM,[2],19 µL/min/mg
same,microsomal CLint at 1 μM,[3],115 µL/min/mg
O=C(NN1CCCCC1)c1ccc2c(c1)N=C(c1ccc(Cl)s1)c1ccccc1S2 [drawing 1829],inhibition at 1 µM,[4],66%
O=C(NN1CCCCCC1)c1ccc2c(c1)N=C(c1cccc(F)c1)c1ccccc1S2 [drawing 1827],inhibition at 1 µM,[4],88%
O=C(NN1CCCCC1)c1ccc2c(c1)N=C(c1ccc(Cl)s1)c1ccccc1S2 [drawing 1660],microsomal CLint at 1 μM,[2],32 µL/min/mg
same,microsomal CLint at 1 μM,[3],148 µL/min/mg
same,microsomal CLint at 1 μM,[5],227 µL/min/mg
O=C(NN1CCCCC1)c1ccc2c(c1)N=C(C1CCCCC1)c1ccccc1S2 [drawing 537],Feeding ID50,[1],12 mg/kg
O=C(NC1CCC(F)(F)CC1)c1ccc2c(c1)N=C(c1cccc(Cl)c1)c1ccccc1S2 [drawing 1715],microsomal CLint at 1 μM,[2],3 µL/min/mg
same,microsomal CLint at 1 μM,[3],81 µL/min/mg
O=C(NCc1ccccc1Cl)c1ccc2c(c1)N=C(c1ccc(Cl)cc1)c1ccccc1S2 [drawing 1782],microsomal CLint at 1 μM,[2],17 µL/min/mg
same,microsomal CLint at 1 μM,[3],33 µL/min/mg
O=C(NC1CCC(F)(F)CC1)c1ccc2c(c1)N=C(c1cccc(Cl)c1)c1ccccc1S2 [drawing 1838],inhibition at 1 µM,[4],62%
"Cc1ccc(N2CCN(C(=O)c3ccc4c(c3)N=C(C3CCCCC3)c3ccccc3S4)CC2)c(C)c1 [Example 18, (11-Cyclohexyl-dibenzo[b,f][1,4]thiazepin-8-yl)-[4-(2,4-dimethyl-phenyl)-piperazin-1-yl]methanone]",IC50,[6],200 nM
same,% Inhibition,[6],99%
same,IC50,[7],39.8 nM
same,Emax,[7],99%
COc1cccc(C2=Nc3cc(C(=O)NC4CCC(F)(F)CC4)ccc3Sc3ccccc32)n1 [drawing 1673],microsomal CLint at 1 μM,[2],25 µL/min/mg
same,microsomal CLint at 1 μM,[3],158 µL/min/mg
CC(CNC(=O)c1ccc2c(c1)N=C(c1ccc(F)cc1)c1ccccc1S2)c1ccccc1 (stereo not drawn) [drawing 1797],microsomal CLint at 1 μM,[2],108 µL/min/mg
same,microsomal CLint at 1 μM,[3],532 µL/min/mg
CCN(CCNC(=O)c1ccc2c(c1)N=C(c1cccc(Cl)c1)c1ccccc1S2)c1ccccc1 [drawing 1751],microsomal CLint at 1 μM,[2],157 µL/min/mg
same,microsomal CLint at 1 μM,[3],368 µL/min/mg
CCCCNC(=O)c1ccc2c(c1)N=C(c1ccc(F)cn1)c1ccccc1S2 [drawing 545],Feeding ID50,[1],6 mg/kg
CC(C)CCNC(=O)c1ccc2c(c1)N=C(c1cccc(F)c1)c1ccccc1S2 [drawing 1713],microsomal CLint at 1 μM,[2],46 µL/min/mg
same,microsomal CLint at 1 μM,[3],163 µL/min/mg
same,microsomal CLint at 1 μM,[5],202 µL/min/mg
CC(C)CNC(=O)c1ccc2c(c1)N=C(c1ccc(Cl)cc1F)c1ccccc1S2 [drawing 542],Feeding ID50,[1],5.8 mg/kg
CC(C)CNC(=O)c1ccc2c(c1)N=C(c1ccc(Cl)s1)c1ccccc1S2 [drawing 544],Feeding ID50,[1],7.9 mg/kg
O=C(NCc1cccc(Cl)c1)c1ccc2c(c1)N=C(N1CCCCC1)c1ccccc1S2(=O)=O [drawing 1798],microsomal CLint at 1 μM,[2],77 µL/min/mg
same,microsomal CLint at 1 μM,[3],217 µL/min/mg
O=C(NCc1ccc(F)cc1)c1ccc2c(c1)N=C(c1cccc(Cl)c1)c1ccccc1S2 [drawing 1662],microsomal CLint at 1 μM,[2],27 µL/min/mg
same,microsomal CLint at 1 μM,[3],76 µL/min/mg
O=C(NN1CCCCC1)c1ccc2c(c1)N=C(c1ccc(F)cc1)c1ccccc1S2 [drawing 1685],microsomal CLint at 1 μM,[2],61 µL/min/mg
same,microsomal CLint at 1 μM,[3],96 µL/min/mg
O=C(NCc1ccccc1Cl)c1ccc2c(c1)N=C(c1ccccc1F)c1ccccc1S2 [drawing 1794],microsomal CLint at 1 μM,[2],59 µL/min/mg
same,microsomal CLint at 1 μM,[3],181 µL/min/mg
O=C(NCCCc1ccccc1)c1ccc2c(c1)N=C(c1ccc(Cl)cc1)c1ccccc1S2 [drawing 1680],microsomal CLint at 1 μM,[2],73 µL/min/mg
same,microsomal CLint at 1 μM,[3],131 µL/min/mg
CC(C)CCNC(=O)c1ccc2c(c1)N=C(c1ccc(F)cc1)c1ccccc1S2 [drawing 1771],microsomal CLint at 1 μM,[2],52 µL/min/mg
same,microsomal CLint at 1 μM,[3],214 µL/min/mg
C[C@@H]1CCC[C@H](C)N1NC(=O)c1ccc2c(c1)N=C(c1cccc(Cl)c1)c1ccccc1S2 [drawing 1720],microsomal CLint at 1 μM,[2],390 µL/min/mg
same,microsomal CLint at 1 μM,[3],254 µL/min/mg
same,microsomal CLint at 1 μM,[5],684 µL/min/mg
O=C(NCc1ccc(F)cc1)c1ccc2c(c1)N=C(c1ccc(Cl)cc1)c1ccccc1S2 [drawing 539],Feeding ID50,[1],8 mg/kg
O=C(NCc1cccnc1)c1ccc2c(c1)N=C(c1ccc(Cl)c(Cl)c1)c1ccccc1S2 [drawing 541],Feeding ID50,[1],14 mg/kg
CC(C)CNC(=O)c1ccc2c(c1)N=C(c1ccc(Cl)cc1)c1ccccc1S2 [drawing 1759],microsomal CLint at 1 μM,[2],12 µL/min/mg
same,microsomal CLint at 1 μM,[3],56 µL/min/mg
same,microsomal CLint at 1 μM,[5],83 µL/min/mg
O=C(NCCCC(F)(F)F)c1ccc2c(c1)N=C(c1cccc(F)c1)c1ccccc1S2 [drawing 1817],inhibition at 1 µM,[8],45%
CC(C)CCNC(=O)c1ccc2c(c1)N=C(c1ccccn1)c1ccccc1S2 [drawing 1842],inhibition at 1 µM,[8],39%
O=C(NN1CCCCC1)c1ccc2c(c1)N=C(c1ccc(Cl)cc1)c1ccccc1S2 [drawing 543],Feeding ID50,[1],2.4 mg/kg
"CCOC(=O)N1CCC(NC(=O)c2ccc3c(c2)N=C(Cl)c2ccccc2S3)CC1 [Example 14, 4-[(11-chloro-dibenzo[b,f][1,4]thiazepine-8-carbonyl)-amino]-piperidine-1-carboxylic acid ethyl ester]",IC50,[6],316 nM
same,% Inhibition,[6],94%
same,IC50,[7],126 nM
same,Emax,[7],88%
CC(C)CNC(=O)c1ccc2c(c1)N=C(c1ccc(Cl)cc1)c1ccc(F)cc1S2 [drawing 1811],inhibition at 1 µM,[8],58%
O=C(NN1CCCCCC1)c1ccc2c(c1)N=C(c1cccc(F)c1)c1ccccc1S2 [drawing 1693],microsomal CLint at 1 μM,[2],84 µL/min/mg
same,microsomal CLint at 1 μM,[3],241 µL/min/mg
same,microsomal CLint at 1 μM,[5],160 µL/min/mg
O=C(NCc1cccnc1)c1ccc2c(c1)N=C(c1ccc(Cl)c(Cl)c1)c1ccccc1S2 [drawing 1830],inhibition at 1 µM,[8],40%
CCCCNC(=O)c1ccc2c(c1)N=C(c1ccc(Cl)cn1)c1cc(F)ccc1S2 [drawing 1841],inhibition at 1 µM,[8],52%
"CC(C)CNC(=O)c1ccc2c(c1)N=C(c1ccc(Cl)s1)c1ccccc1S2 [Example 11, 11-(5-Chlorothiophen-2-yl)-dibenzo[b,f][1,4]thiazepine-8-carboxylic acid isobutylamide]",IC50,[6],126 nM
same,% Inhibition,[6],95%
same,Ki,[9],10 nM
same,IC50,[7],15.8 nM
same,Emax,[7],84%
O=C(NN1CCCCCC1)c1ccc2c(c1)N=C(c1cccc(Cl)c1)c1ccccc1S2 [drawing 1825],inhibition at 1 µM,[8],97%
CCCNC(=O)c1ccc2c(c1)N=C(c1ccc(Cl)cc1)c1ccccc1S2 [drawing 1826],inhibition at 1 µM,[8],55%
O=C(NN1CCCCC1)c1ccc2c(c1)N=C(c1ccc(F)cc1)c1ccccc1S2 [drawing 1815],inhibition at 1 µM,[4],91%
O=C(NCc1ccco1)c1ccc2c(c1)N=C(c1cccc(F)c1)c1ccccc1S2 [drawing 1754],microsomal CLint at 1 μM,[2],68 µL/min/mg
same,microsomal CLint at 1 μM,[3],140 µL/min/mg
same,microsomal CLint at 1 μM,[5],197 µL/min/mg
O=C(NCCc1ccccc1)c1ccc2c(c1)N=C(c1cccc(Cl)c1)c1ccccc1S2 [drawing 1763],microsomal CLint at 1 μM,[2],53 µL/min/mg
same,microsomal CLint at 1 μM,[3],110 µL/min/mg
CCCCNC(=O)c1ccc2c(c1)N=C(c1ccc(Cl)cc1)c1ccccc1S2 [drawing 536],Feeding ID50,[1],2.4 mg/kg
CC(C)CNC(=O)c1ccc2c(c1)N=C(c1ccc(Cl)cc1)c1ccccc1S2 [drawing 1818],inhibition at 1 µM,[4],69%
CCCCNC(=O)c1ccc2c(c1)N=C(c1ccc(Cl)s1)c1ccccc1S2 [drawing 1824],inhibition at 1 µM,[8],14%
CCCCNC(=O)c1ccc2c(c1)N=C(c1ccc(Cl)cc1)c1ccc(F)cc1S2 [drawing 1821],inhibition at 1 µM,[8],34%

# Source: US20080090805A1, “CB-1 MODULATING COMPOUNDS AND THEIR USE” (ACADIA PHARMACEUTICALS INC., priority 2005, published 2008)
